Reference: patent publication US20240067632A1, “WEE1 Degrading Compounds and Uses Thereof” (Bristol-Myers Squibb Company, priority 2022, published 2024)
Like-named read-outs stand apart in the source and are kept apart here.

Assays:
[1] = tested on: MKN45 cells; experiment: MKN45 cell proliferation assay (Cell-Titer-Glo, 120 h); assay type: cell-based; settings: for EC50: Homo sapiens, MKN-45, 120 h, Cell-Titer-Glo, read-out: MKN45 Cell Prolif. 120 hr (EC50); for MKN45 Cell Prolif. 120 hr (Ymin-Obs): minimal percent of DMSO control observed in the concentrations tested
Method in brief: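 Growth inhibition was read as blank-corrected Cell-Titer-Glo luminescence expressed as percent DMSO control after 120 h at 37 C, 400 cells/well. Compounds tested in triplicate as 10-point half-log series from 1 or 10 uM, 0.1% DMSO; four-parameter fit gave EC50, and lowest observed percent control was reported as Ymin-obs.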

[2] = target: T1, WEE1 (Homo sapiens, UniProt P30291+Q96SW2); experiment: WEE1-ePL degradation assay (LentiX-WEE1-ePL-GSPT1-ND cells, InCELL Hunter luminescence, 4 h); assay type: cell-based; settings: 293T-LentiX WEE1-ePL cells; for DC50: read-out: 293T-LentiX WEE1-ePL Degradation 4 hr (EC50)
T1 construct: C-terminal ePL-tagged (DiscoverX, Fremont, CA) full-length WEE1 expression construct; expressed in transfected cells; host or cells: LentiX-HEK293T (Invitrogen), lentiviral transduction; co-expressing GSPT1-GN (G576N, lacking the first 158 amino acids)
Method in brief: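 LentiX-HEK293T cells stably expressing C-terminally ePL-tagged full-length WEE1 were treated with compounds in a 10-point, 3-fold dilution series starting at 1 uM or 10 uM for 4 h at 37 °C. Remaining WEE1-ePL was detected by InCELL Hunter luminescence, and EC50, Ymin and Ymax came from a four-parameter logistic fit against DMSO control.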

[3] = lower limit of the fit (Ymin=0 luciferase inhibitor, Ymax DMSO control)
[4] = lower limit of the fit (0 = luciferase inhibitor, Ymax = DMSO control)

SMILES	EC50 [1]	MKN45 Cell Prolif. 120 hr (Ymin-Obs) [1]	293T-LentiX WEE1-ePL Degradation 4 hr (Ymin) [2, 3]	DC50 [2]	EC50 ([1]; growth inhibition)	293T-LentiX WEE1-ePL Degradation 4 hr (Ymin) [2, 4]
C[C@@H]1CN(Cc2cc(F)c3nc([C@H]4CCOC4)ccc3c2)C[C@H]1Oc1ccc2c(c1)CN(C1CCC(=O)NC1=O)C2=O (stereo partly drawn) [3-(5-{[(3S,4R)-1-({8-fluoro-2-[(3R)-oxolan-3-yl]quinolin-6-yl}methyl)-4-methylpyrrolidin-3-yl]oxy}-1-oxo-2,3-dihydro-1H-isoindol-2-yl)piperidine-2,6-dione]	1.3 nM	8.038	30.53	1.56 nM	–	–
COC[C@H]1CC[C@H](c2ccc3cc(CN4CC[C@H](Oc5ccc6c(c5)CN(C5CCC(=O)NC5=O)C6=O)C4)ccc3n2)CC1 (stereo partly drawn) [3-(1-oxo-5-{[(3S)-1-({2-[(1r,4r)-4-(methoxymethyl)cyclohexyl]quinolin-6-yl}methyl)pyrrolidin-3-yl]oxy}-2,3-dihydro-1H-isoindol-2-yl)piperidine-2,6-dione]	–	14.13	–	1.57 nM	2.56 nM	33.24
O=C1CCC(N2Cc3cc(O[C@H]4CCN(Cc5cc6ccc([C@@H]7CCOC7)cc6cn5)C4)ccc3C2=O)C(=O)N1 (stereo partly drawn) [3-(1-oxo-5-{[(3S)-1-({7-[(3S)-oxolan-3-yl]isoquinolin-3-yl}methyl)pyrrolidin-3-yl]oxy}-2,3-dihydro-1H-isoindol-2-yl)piperidine-2,6-dione]	–	7.635	–	1.66 nM	1.84 nM	30
O=C1CCC(N2Cc3cc(O[C@H]4CCN(Cc5ccc6nc(N7[C@@H]8CC[C@H]7COC8)ccc6c5)C4)ccc3C2=O)C(=O)N1 (stereo partly drawn) [3-(5-{[(3S)-1-({2-[(1R,5S)-3-oxa-8-azabicyclo[3.2.1]octan-8-yl]quinolin-6-yl}methyl)pyrrolidin-3-yl]oxy}-1-oxo-2,3-dihydro-1H-isoindol-2-yl)piperidine-2,6-dione]	–	11.965	–	4.47 nM	9.72 nM	28
CN1CC[C@H](c2ccc3cc(CN4CC[C@H](Oc5ccc6c(c5)CN(C5CCC(=O)NC5=O)C6=O)C4)ccc3n2)C1 (stereo partly drawn) [3-(5-{[(3S)-1-({2-[(3S)-1-methylpyrrolidin-3-yl]quinolin-6-yl}methyl)pyrrolidin-3-yl]oxy}-1-oxo-2,3-dihydro-1H-isoindol-2-yl)piperidine-2,6-dione]	–	12.73	–	67.5 nM	59.7 nM	37
CNC(=O)c1ncc2cc(CN3CC[C@H](Oc4ccc5c(c4)CN(C4CCC(=O)NC4=O)C5=O)C3)ccc2n1 (stereo partly drawn) [6-{[(3S)-3-{[2-(2,6-dioxopiperidin-3-yl)-1-oxo-2,3-dihydro-1H-isoindol-5-yl]oxy}pyrrolidin-1-yl]methyl}-N-methylquinazoline-2-carboxamide]	–	8.51	–	175 nM	337 nM	38
C[C@@H]1CN(Cc2cc(F)c3nc(C4CCOCC4)ccc3c2)C[C@H]1Oc1ccc2c(c1)CN(C1CCC(=O)NC1=O)C2=O (stereo partly drawn) [3-(5-{[(3S,4R)-1-{[8-fluoro-2-(oxan-4-yl)quinolin-6-yl]methyl}-4-methylpyrrolidin-3-yl]oxy}-1-oxo-2,3-dihydro-1H-isoindol-2-yl)piperidine-2,6-dione]	1.49 nM	7.781	27.42	1.13 nM	–	–
O=C1CCC(N2Cc3cc(O[C@H]4CCN(Cc5ccc6nc(C7COC7)ncc6c5)C4)ccc3C2=O)C(=O)N1 (stereo partly drawn) [3-(5-{[(3S)-1-{[2-(oxetan-3-yl)quinazolin-6-yl]methyl}pyrrolidin-3-yl]oxy}-1-oxo-2,3-dihydro-1H-isoindol-2-yl)piperidine-2,6-dione]	–	7.8	–	16.8 nM	16.7 nM	30
CN1CCCc2c(CN3CC[C@H](Oc4ccc5c(c4)CN(C4CCC(=O)NC4=O)C5=O)C3)cncc21 (stereo partly drawn) [3-(5-{[(3S)-1-[(1-methyl-1,2,3,4-tetrahydro-1,7-naphthyridin-5-yl)methyl]pyrrolidin-3-yl]oxy}-1-oxo-2,3-dihydro-1H-isoindol-2-yl)piperidine-2,6-dione]	–	43.26	–	19.6 nM	313 nM	40
O=C1CCC(N2Cc3cc(O[C@H]4CCN(Cc5ccc6nc(N7CCC(O)CC7)ccc6c5)C4)ccc3C2=O)C(=O)N1 (stereo partly drawn) [3-(5-{[(3S)-1-{[2-(4-hydroxypiperidin-1-yl)quinolin-6-yl]methyl}pyrrolidin-3-yl]oxy}-1-oxo-2,3-dihydro-1H-isoindol-2-yl)piperidine-2,6-dione]	–	9.69	–	2.86 nM	6.59 nM	34.5
C[C@@H]1CN(Cc2ccc3nc([C@@H]4CCOC4)ccc3c2)C[C@H]1Oc1ccc2c(c1)CN(C1CCC(=O)NC1=O)C2=O (stereo partly drawn) [3-(5-{[(3S,4R)-4-methyl-1-({2-[(3S)-oxolan-3-yl]quinolin-6-yl}methyl)pyrrolidin-3-yl]oxy}-1-oxo-2,3-dihydro-1H-isoindol-2-yl)piperidine-2,6-dione]	3.67 nM	10.01	33.96	1.95 nM	–	–
CC1(C)CN(c2ccc3cc(CN4CC[C@H](Oc5ccc6c(c5)CN(C5CCC(=O)NC5=O)C6=O)C4)ccc3n2)CCO1 (stereo partly drawn) [3-(5-{[(3S)-1-{[2-(2,2-dimethylmorpholin-4-yl)quinolin-6-yl]methyl}pyrrolidin-3-yl]oxy}-1-oxo-2,3-dihydro-1H-isoindol-2-yl)piperidine-2,6-dione]	–	10.48	–	2.41 nM	2.61 nM	32
O=C1CCC(N2Cc3cc(O[C@H]4CCN(Cc5ccc(C(F)(F)F)cn5)C4)ccc3C2=O)C(=O)N1 (stereo partly drawn) [3-(1-oxo-5-{[(3S)-1-{[5-(trifluoromethyl)pyridin-2-yl]methyl}pyrrolidin-3-yl]oxy}-2,3-dihydro-1H-isoindol-2-yl)piperidine-2,6-dione]	–	65.6	–	52.6 nM	363 nM	53.66
N#Cc1ccc2cc(CN3C[C@@H](Oc4ccc5c(c4)CN(C4CCC(=O)NC4=O)C5=O)C(F)(F)C3)ccc2n1 (stereo partly drawn) [6-{[(4R)-4-{[2-(2,6-dioxopiperidin-3-yl)-1-oxo-2,3-dihydro-1H-isoindol-5-yl]oxy}-3,3-difluoropyrrolidin-1-yl]methyl}quinoline-2-carbonitrile]	–	22.8	–	20.2 nM	22.9 nM	30.83
N#Cc1cnc2ccc(CN3CC[C@H](Oc4ccc5c(c4)CN(C4CCC(=O)NC4=O)C5=O)C3)cc2c1 (stereo partly drawn) [6-{[(3S)-3-{[2-(2,6-dioxopiperidin-3-yl)-1-oxo-2,3-dihydro-1H-isoindol-5-yl]oxy}pyrrolidin-1-yl]methyl}quinoline-3-carbonitrile]	–	12.18	–	4.18 nM	44 nM	33
O=C1CC[C@@H](N2Cc3cc(O[C@H]4CCN(Cc5ccc6ncccc6c5)C4)ccc3C2=O)C(=O)N1 [(3R)-3-(1-oxo-5-{[(3S)-1-[(quinolin-6-yl)methyl]pyrrolidin-3-yl]oxy}-2,3-dihydro-1H-isoindol-2-yl)piperidine-2,6-dione]	–	12.45	–	3.55 nM	26.5 nM	26.94
O=C1CCC(N2Cc3cc(O[C@H]4CCN(Cc5ccc6nccnc6c5)C4)ccc3C2=O)C(=O)N1 (stereo partly drawn) [3-(1-oxo-5-{[(3S)-1-[(quinoxalin-6-yl)methyl]pyrrolidin-3-yl]oxy}-2,3-dihydro-1H-isoindol-2-yl)piperidine-2,6-dione]	–	70.03	–	14.2 nM	879 nM	43
CO[C@H]1CC[C@@H](Oc2ccc3cc(CN4CC[C@H](Oc5ccc6c(c5)CN(C5CCC(=O)NC5=O)C6=O)C4)ccc3n2)CC1 (stereo partly drawn) [3-(1-oxo-5-{[(3S)-1-[(2-{[(1s,4s)-4-methoxycyclohexyl]oxy}quinolin-6-yl)methyl]pyrrolidin-3-yl]oxy}-2,3-dihydro-1H-isoindol-2-yl)piperidine-2,6-dione]	–	8.79	–	4.62 nM	5.35 nM	31.33
CC1(C)CCN(c2ccc3cc(CN4CC[C@H](Oc5ccc6c(c5)CN(C5CCC(=O)NC5=O)C6=O)C4)ccc3n2)C1=O (stereo partly drawn) [3-(5-{[(3S)-1-{[2-(3,3-dimethyl-2-oxopyrrolidin-1-yl)quinolin-6-yl]methyl}pyrrolidin-3-yl]oxy}-1-oxo-2,3-dihydro-1H-isoindol-2-yl)piperidine-2,6-dione]	–	7.37	–	7.36 nM	3.88 nM	29.67
